# According to patent US20230172205A1 (priority 2020, published 2023):
# Like-named read-outs stand apart in the source and are kept apart here.
# How the values were obtained:
# Septoria tritici = experiment: microbe, parasite or virus in culture; type: cell-based; settings: Zymoseptoria tritici, 168 h, read-out: Fungal growth (%) SEPTTR
# [1] = tested on: Colletotrichum orbiculare; experiment: microbe, parasite or virus in culture; type: cell-based; settings: 168 h, read-out: Fungal growth (%) COLLLA
# Pyricularia oryzae = experiment: microbe, parasite or virus in culture; type: cell-based; settings: Pyricularia oryzae, 168 h, read-out: Fungal growth (%) PYRIOR
# [2] = tested on: Phakopsora pachyrhizi, strain with amino acid substitution F129L in the mitochondrial cytochrome b protein; experiment: Protective control of soybean rust on soybeans (PHAKPA P6); type: in vivo; settings: for % PHAKPA (F129L) Disease level, P6 at 4 ppm: protective P6, 4 ppm; for % PHAKPA (F129L) Disease level, P6 at 4 ppm / % PHAKPA (F129L) Disease level, P6 at 16 ppm: soybean rust F129L strain; for % PHAKPA (F129L) Disease level, P6 at 16 ppm: protective P6, 16 ppm
# [3] = tested on: Phakopsora pachyrhizi, strain with amino acid substitution F129L in the mitochondrial cytochrome b protein; experiment: Protective control of soybean rust on soybeans (PHAKPA P2); type: in vivo; settings: for % PHAKPA (F129L) Disease level, P2 at 4 ppm: protective P2, 4 ppm; for % PHAKPA (F129L) Disease level, P2 at 4 ppm / % PHAKPA (F129L) Disease level, P2 at 16 ppm: soybean rust F129L strain; for % PHAKPA (F129L) Disease level, P2 at 16 ppm: protective P2, 16 ppm
# [4] = tested on: Alternaria solani, Qo inhibitor-resistant isolate containing F129L in the mitochondrial cytochrome b protein; experiment: Micro titer plate test, activity against Alternaria solani causing early blight (ALTESO), F129L; type: cell-based; settings: Alternaria solani, 168 h
# [5] = tested on: Alternaria solani, sensitive wild-type isolate (wt); experiment: microbe, parasite or virus in culture; type: cell-based; settings: 168 h, read-out: Fungal growth (%) ALTESO wt
# [6] = tested on: Phakopsora pachyrhizi, isolate with amino acid substitution F129L in the mitochondrial cytochrome b protein; experiment: Protective control of soybean rust on detached soybean leaves (PHAKPA P1 DL), F129L isolate; type: in vivo; settings: Table C6b
# Microdochium nivale = experiment: microbe, parasite or virus in culture; type: cell-based; settings: 168 h, read-out: Fungal growth (%) MONGNI
# [7] = tested on: Phakopsora pachyrhizi, isolate sensitive to Qo inhibitors (wt); experiment: Protective control of soybean rust on detached soybean leaves (PHAKPA P1 DL), wt isolate; type: in vivo; settings: Table C6a
structure (smiles),measurement,setting,value
CNC(=O)/C(=N/OC)c1cccc(C)c1CO/N=C(\C)c1cccc(C)c1 [Ex. 77],activity at 0.25 ppm,Septoria tritici,49%
same,activity at 0.063 ppm,[1],39%
same,activity at 0.016 ppm,Pyricularia oryzae,20%
same,"PHAKPA (F129L) Disease level (%), P6 at 16 ppm","[2]; P6 at 16 ppm, untreated 75%",20%
same,"% PHAKPA (F129L) Disease level, P6 at 4 ppm",[2],40%
same,"% PHAKPA (F129L) Disease level, P6 at 16 ppm",[2],3%
same,PHAKPA (F129L) Disease level (%) P2 at 4 ppm,"[3]; P2 at 4 ppm, untreated 92%",37%
same,"% PHAKPA (F129L) Disease level, P2 at 4 ppm",[3],67%
same,"% PHAKPA (F129L) Disease level, P2 at 16 ppm",[3],4%
same,activity at 0.016 ppm,"[4]; Table C14, read-out: Fungal growth (%) ALTESO F129L",69%
same,activity at 0.016 ppm,[5],73%
CNC(=O)/C(=N/OC)c1cccc(C)c1CO/N=C(\C)c1ccc(Cl)cc1 [Ex. 158],activity at 0.016 ppm,Pyricularia oryzae,38%
same,PHAKPA (F129L) Disease level (%) P6 at 4 ppm,"[2]; Table C2, protective, inoculation six days after spraying, 4 ppm, % diseased leaf area on soybean, untreated 99",4%
same,"% PHAKPA (F129L) Disease level, P6 at 4 ppm",[2],2%
same,"% PHAKPA (F129L) Disease level, P6 at 16 ppm",[2],0%
same,PHAKPA (F129L) Disease level (%) P2 at 4 ppm,"[3]; Table C2, protective, inoculation 2 days after spraying, 4 ppm, % diseased leaf area on soybean, untreated 100",1%
same,"% PHAKPA (F129L) Disease level, P2 at 4 ppm",[3],0%
same,"% PHAKPA (F129L) Disease level, P2 at 16 ppm",[3],0%
same,activity at 0.016 ppm,"[4]; Table C5, read-out: Fungal growth (%) ALTESO F129L",79%
same,activity at 0.016 ppm,[5],66%
same,"PHAKPA P1 DL Disease level (%), Qo I-resistant F129L isolate (100% F129L)","[6]; 0.3 ppm, 0 ppm control 93",87%
same,"PHAKPA P1 DL Disease level (%), Qo I-resistant F129L isolate (100% F129L)",[6]; 1 ppm,57%
same,"PHAKPA P1 DL Disease level (%), Qo I-resistant F129L isolate (100% F129L)",[6]; 3 ppm,8%
same,"PHAKPA P1 DL Disease level (%), Qo I-resistant F129L isolate (100% F129L)",[6]; 10 ppm,2%
same,"PHAKPA P1 DL Disease level (%), Qo I-resistant F129L isolate (100% F129L)",[6]; 30 ppm,4%
same,"PHAKPA P1 DL Disease level (%), Qo I-resistant F129L isolate (100% F129L)",[6]; 100 ppm,4%
same,"PHAKPA P1 DL Disease level (%), Qo I-resistant F129L isolate (100% F129L)",[6]; 300 ppm,5%
same,activity at 0.016 ppm,Microdochium nivale,71%
same,"PHAKPA P1 DL Disease level (%), Qo I-sensitive wt isolate (0% F129L)","[7]; 0.3 ppm, 0 ppm control 93",38%
same,"PHAKPA P1 DL Disease level (%), Qo I-sensitive wt isolate (0% F129L)",[7]; 1 ppm,7%
same,"PHAKPA P1 DL Disease level (%), Qo I-sensitive wt isolate (0% F129L)",[7]; 3 ppm,2%
same,"PHAKPA P1 DL Disease level (%), Qo I-sensitive wt isolate (0% F129L)",[7]; 10 ppm,1%
same,"PHAKPA P1 DL Disease level (%), Qo I-sensitive wt isolate (0% F129L)",[7]; 30 ppm,4%
same,"PHAKPA P1 DL Disease level (%), Qo I-sensitive wt isolate (0% F129L)",[7]; 100 ppm,5%
same,"PHAKPA P1 DL Disease level (%), Qo I-sensitive wt isolate (0% F129L)",[7]; 300 ppm,4%
